These are literature values, as cited in patent publication EP0985412B1, “Cyclosporin compositions” (Panacea Biotec Limited, priority 1998, dated 2000).

The test system of the data set is normal epithelial tissue and Peyer's patch tissue of guinea pigs.

In the case of Choleic acid, the “absorption raised by a factor” value is reported as 5-6.
